# Test results from patent US7470549B2, “Measurement method using biosensor” (FUJIFILM Corporation, priority 2004, dated 2008).
# Tests used:
# [1] = target: T1, Trypsin (Bos taurus, UniProt P00760); assay: SPR measurement of substance binding to trypsin immobilized on hydrogel-coated chip (Examples 1-4); conditions: for Bond of substance interacting with trypsin (RU): 0.002 mM solution, left at rest 10 minutes, change of resonance signal, hydrogel-coated chip; for Binding to trypsin (in words): comment on Table 1
# T1 sequence (P00760 24-246): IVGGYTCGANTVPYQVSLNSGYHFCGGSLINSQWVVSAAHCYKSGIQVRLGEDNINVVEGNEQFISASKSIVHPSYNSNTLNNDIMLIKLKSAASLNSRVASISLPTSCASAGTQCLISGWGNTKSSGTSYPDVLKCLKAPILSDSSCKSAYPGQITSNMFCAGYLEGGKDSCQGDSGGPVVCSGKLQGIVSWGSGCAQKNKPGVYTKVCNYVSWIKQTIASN
# Method: Trypsin (manufactured by Worthington) was immobilized on a measurement chip. Interaction measurement was carried out using a surface plasmon resonance measurement device.
# (§1) A mixed solution consisting of 1-ethyl-2,3-dimethylaminopropylcarbodiimide (400 mM) and N-hydroxysuccinimide (100 mM) was added to a hydrogel-coated chip, followed by leaving at rest for 20 minute. Thereafter, the resultant product was washed with an HBS-N buffer containing 10 mM CaCl2. Subsequently, trypsin (1 mg/ml, 10 mM CaCl2-containing HBS-N buffer) was added thereto, followed by leaving at rest for 30 minutes. Thereafter, the resultant product was washed with a 10 mM CaCl2-containing HBS-N buffer. The used HBS-N buffer is composed of 0.01 mol/l (pH 7.4) HEPES (N-2-hydroxyethylpiperazine-N′-2-ethanesulfonic acid) and 0.15 mol/l NaCl.
# Thereafter, an ethanolamine/HCl solution (1M, pH 8.5) was added to the measurement chip, followed by washing with an HBS-N buffer (manufactured by Biacore), so as to block COOH groups that remained without reacting with trypsin.
# (§2) By the aforementioned operations, trypsin was immobilized on the surface of the measurement chip via a covalent bond. The amount by which resonance signals (RU value) obtained before the addition of trypsin and after washing it had changed was defined as the immobilized amount of trypsin (RU value).
# (§3) A measurement chip was washed with an HBS-N buffer. Thereafter, the measurement chip was equipped into a surface plasmon resonance measurement device, and a leupeptin solution (0.002 mM, HBS-N buffer) was added thereto, followed by leaving at rest for 10 minutes. The amount by which resonance signals (RU value) had changed was defined as the amount of leupeptin (manufactured by ICN) binding to trypsin.
# A measurement chip was washed with an HBS-N buffer.
# as §3, with “chymostatin” for “leupeptin”
# [2] = target: T1, Trypsin; assay: Enzyme activity of immobilized trypsin with Bz-Arg-MCA, fluorescence of decomposed product, same hydrogel chip (Examples 1-4); format: biochemical; conditions: for Measurement results of fluorescence intensity (120 minutes): 0.002 mM substance, 0.1 mM Bz-Arg-MCA, excitation 380 nm, emission 460 nm, no substance: 580; for Inhibitory action on the enzyme activity of trypsin (in words): comment on Table 1
# Method: (§4) Using the chip after the measurement of the amount of leupeptin binding to trypsin described in (2) above, the enzyme activity of trypsin was measured. Specifically, a substrate specific to trypsin (benzoyl-L-arginine-4-methylcoumarin-7-amide (hereinafter referred to as Bz-Arg-MCA); Peptide Institute, Inc.) was allowed to react with trypsin, and fluorescence in the decomposed product was measured.
# The HBS-N buffer contained in the measurement chip was removed, and a leupeptin solution (0.002 mM, HBS-N buffer) and 0.1 mM Bz-Arg-MCA were added thereto. The reaction was then carried out for 10, 30, 60, and 120 minutes.
# Fluorescence measurement was carried out regarding the reaction for each of the aforementioned reaction times, using the BMGLabTechnologies FLUOstar measurement device (excitation: 380 nm; and emission: 460 nm).
# (§5) Specifically, a substrate specific to trypsin (benzoyl-L-arginine-4-methylcoumarin-7-amide (hereinafter referred to as Bz-Arg-MCA); Peptide Institute, Inc.) was allowed to react with trypsin, and fluorescence in the decomposed product was measured.
# The reaction was then carried out for 10, 30, 60, and 120 minutes.
# Fluorescence measurement was carried out regarding the reaction for each of the aforementioned reaction times, using the BMGLabTechnologies FLUstar measurement device (excitation: […]; and emission: 460 nm).
# as §4, with “chymostatin” for “leupeptin”, “trypsin” for “trypsin described”
# The HBS-N buffer contained in the measurement chip was removed, and a chymostatin solution (0.002 mM, HBS-N buffer) and 0.1 mM Bz-Arg-MCA were added thereto. The reaction was then carried out for 10, 30, 60, and 120 minutes.
# (§6) Fluorescence measurement was carried out regarding the reaction for each of the aforementioned reaction times, using the BMGLabTechnologies FLUstar measurement device (excitation: 380 nm; and emission: 460 nm).
# [3] = target: T1, Trypsin; assay: Selection of compounds by affinity: SPR binding to trypsin-immobilized PMMA/PEO sensor chip (Example 6); conditions: for Binding amount (RU): left at rest 10 minutes, change of resonance signal, PMMA sensor chip
# Method: Using the SPR system used for screening shown in FIG. 1, immobilization of a ligand, the binding measurement of compounds, and selection of compounds were carried out.
# Thereafter, it was placed in a spin coater (MODEL ASS-303; manufactured by ABLE) and then rotated at 1,000 rpm. 50 μl of a methyl ethyl ketone solution containing polymethyl methacrylate (2 mg/ml) was added dropwise to the center of the cover glass coated with gold via evaporation, and 2 minutes later, the rotation was terminated. The thickness of the membrane was measured by the ellipsometry method (In-Situ Ellipsometer MAUS-101; manufactured by Five Lab). […] This sample is called a PMMA surface chip. This PMMA surface chip was immersed in an NaOH aqueous solution (1 N) at 40° C. for 16 hours, followed by washing with water 3 times. This sample is called a PMMA/COOH surface chip. This PMMA/COOH surface chip was immersed in 2 ml of a mixed solution of 1-ethyl-2,3-dimethylaminopropylcarbodiimide (400 mM) and N-hydroxysuccinimide (100 mM) for 60 minutes. Thereafter, it was immersed in 2 ml of an α-amino-polyethyleneoxy-ω-carboxylic acid (mean molecular weight: 5,000) aqueous solution (10 mM) for 16 hours. The resultant product was finally washed with water 5 times. The thus obtained sensor chip was used in the following operation.
# as §1, with “solution” for “solution consisting”, “the sensor chip produced in (1) above,” for “a hydrogel-coated chip,”, “buffer.” for “buffer. The used HBS-N buffer is composed of 0.01 mol/l (pH 7.4) HEPES (N-2-hydroxyethylpiperazine-N′-2-ethanesulfonic acid) and 0.15 mol/l NaCl.”
# Thereafter, an ethanolamine/HCl solution (1M, pH 8.5) was added to the measurement chip, followed by washing with an HBS-N buffer (manufactured by Biacore).
# The sensor chip on which trypsin had been immobilized was washed with an HBS-N buffer.
# [4] = target: T1, Trypsin; assay: SPR binding to trypsin on PMMA measurement chip, Biacore 3000 (Example 5); conditions: leupeptin 0.002 mM, 10 minutes
# Method: Trypsin (manufactured by Worthington) was immobilized on a PMMA measurement chip. Interaction measurement was carried out using a surface plasmon resonance measurement device (Biacore 3000).
# A PMMA measurement chip was equipped into Biacore 3000. A mixed solution of 1-ethyl-2,3-dimethylaminopropylcarbodiimide (400 mM) and N-hydroxysulfosuccinimide (100 mM) was added thereto, followed by reaction for 7 minutes. Thereafter, trypsin (0.05 mg/ml, 10 mM CaCl2-containing HBS-N buffer) was added thereto, followed by reaction for 7 minutes.
# Thereafter, an ethanolamine/HCl solution (1M, pH 8.5) was added to the measurement chip, followed by reaction for 7 minutes, so as to block COOH groups that remained without reacting with trypsin.
# as §2, with “of the PMMA measurement chip” for “of the measurement chip”
# A leupeptin solution (0.002 mM, HBS-N buffer) was added to a measurement chip, followed by reaction for 10 minutes. The amount by which resonance signals (RU value) had changed was defined as the amount of leupeptin (manufactured by ICN) binding to trypsin.
# [5] = target: T1, Trypsin; assay: Enzyme activity of trypsin on PMMA chip with Bz-Arg-MCA, fluorescence (Example 5); format: biochemical; conditions: leupeptin 0.002 mM, 0.1 mM Bz-Arg-MCA
# Method: as §4, with “Using the PMMA chip after” for “Using the chip after”, “to trypsin in (2)” for “to trypsin described in (2)”
# The inside of the PMMA measurement chip was washed with an HBS-N buffer. Thereafter, a leupeptin solution (0.002 mM, HBS-N buffer) and 0.1 mM Bz-Arg-MCA were added thereto. The reaction was then carried out for 10, 30, 60, and 120 minutes.
# as §6
# [6] = target: T1, Trypsin; assay: Selection of compounds due to biological activity: trypsin enzyme activity with Bz-Arg-MCA, fluorescence (Example 7); format: biochemical
# Method: as §5
# Thereafter, the reaction was then carried out for 10, 30, 60, and 120 minutes.
# as §6
Structure (SMILES),Bond of substance interacting with trypsin (RU) [1] [RU],Binding to trypsin (in words) [1],Measurement results of fluorescence intensity (120 minutes) [2],Inhibitory action on the enzyme activity of trypsin (in words) [2],Binding amount (RU) [3] [RU],"Binding amount of substance interacting with trypsin, compared with CM5 cup [4]","Fluorescence intensity, compared with CM5 cup [5]","Binding observed, selection of compounds (in words) ([3]; Example 6 (3))","Selection due to binding amount ([3]; symbols ◯ / X, key not given)","Measurement value of fluorescence intensity ([6]; 4 μM compound solution mixed 1:1 with 0.2 mM Bz-Arg-MCA, reaction time of the value not given, no compound: 594)","Inhibition of the enzyme activity of trypsin, selection of compounds (in words) ([6]; Example 7 (3))","Selection due to enzyme activity ([6]; symbols ◯ / X, key not given)"
CC(C)C[C@H](NC(=O)[C@@H](NC(=O)N[C@@H](Cc1ccccc1)C(=O)O)[C@@H]1CCN=C(N)N1)C(=O)N[C@H](C=O)Cc1ccccc1 [Chymostatin],0,did not bind to trypsin,576,no inhibitory action on the enzyme activity of trypsin was observed,0,–,–,–,–,–,–,–
CC(=O)N[C@@H](CC(C)C)C(=O)N[C@@H](CC(C)C)C(=O)N[C@H](C=O)CCCNC(=N)N [Leupeptin],22,bound to the enzyme activity site of trypsin,2,inhibiting the enzyme activity,23,equivalent to the values obtained with CM5 cup,equivalent to the values obtained with CM5 cup,"the binding of which were observed, were selected",◯,3,inhibited the enzyme activity of trypsin,◯
